Reference: the NIST ThermoML archive (doi:10.1016/j.jct.2008.12.005)
± gives the expanded uncertainty stated by the source.

Test: activity coefficient (dimensionless); of the first substance listed, at infinite dilution; xn = mol fraction of the nth substance listed
Conditions: 101 kPa, Liquid, Chromatography, x1 = 0

SMILES | activity coefficient (298.15 K) | activity coefficient (308.15 K) | activity coefficient (318.15 K) | activity coefficient (328.15 K) | activity coefficient (338.15 K) | activity coefficient (348.15 K) | activity coefficient (358.15 K) | activity coefficient (368.15 K)
C=CCCCC [hex-1-ene] + CC[S+](CC)CC.O=S(=O)([N-]S(=O)(=O)C(F)(F)F)C(F)(F)F | 12.5 ± 0.9 | 11.8 ± 0.8 | 11.3 ± 0.8 | 10.6 ± 0.7 | 10.1 ± 0.7 | 9.69 ± 0.66 | 9.3 ± 0.63 | 8.94 ± 0.61
CCCCCC [hexane] + CC[S+](CC)CC.O=S(=O)([N-]S(=O)(=O)C(F)(F)F)C(F)(F)F | 28.6 ± 2 | 26.2 ± 1.8 | 24 ± 1.6 | 22.1 ± 1.5 | 20.7 ± 1.4 | 19.2 ± 1.3 | 18 ± 1.2 | 16.9 ± 1.2
CCCCO [butan-1-ol] + CC[S+](CC)CC.O=S(=O)([N-]S(=O)(=O)C(F)(F)F)C(F)(F)F | – | 3.32 ± 0.23 | 2.96 ± 0.2 | 2.66 ± 0.18 | 2.41 ± 0.16 | 2.2 ± 0.15 | 2 ± 0.14 | 1.84 ± 0.12
CO [methanol] + CC[S+](CC)CC.O=S(=O)([N-]S(=O)(=O)C(F)(F)F)C(F)(F)F | 1.62 ± 0.11 | 1.48 ± 0.1 | 1.35 ± 0.09 | 1.25 ± 0.08 | 1.15 ± 0.07 | 1.07 ± 0.07 | 1 ± 0.06 | 0.935 ± 0.059
CCCCCCCC [octane] + CC[S+](CC)CC.O=S(=O)([N-]S(=O)(=O)C(F)(F)F)C(F)(F)F | 59.6 ± 4.1 | 53.3 ± 3.7 | 47.9 ± 3.3 | 43.6 ± 3 | 39.6 ± 2.7 | 36.3 ± 2.5 | 33.5 ± 2.3 | 30.8 ± 2.1
CCO [ethanol] + CC[S+](CC)CC.O=S(=O)([N-]S(=O)(=O)C(F)(F)F)C(F)(F)F | 2.15 ± 0.15 | 1.95 ± 0.13 | 1.77 ± 0.12 | 1.61 ± 0.11 | 1.48 ± 0.1 | 1.36 ± 0.09 | 1.27 ± 0.08 | 1.18 ± 0.08
C1CCCC1 [cyclopentane] + CC[S+](CC)CC.O=S(=O)([N-]S(=O)(=O)C(F)(F)F)C(F)(F)F | 10.8 ± 0.7 | 10.1 ± 0.7 | 9.31 ± 0.64 | 8.72 ± 0.59 | 8.17 ± 0.56 | 7.7 ± 0.53 | 7.29 ± 0.5 | 6.94 ± 0.47
C=CCCCCCC [oct-1-ene] + CC[S+](CC)CC.O=S(=O)([N-]S(=O)(=O)C(F)(F)F)C(F)(F)F | 27 ± 1.8 | 25 ± 1.7 | 23.2 ± 1.6 | 21.8 ± 1.5 | 20.4 ± 1.4 | 19.2 ± 1.3 | 18.2 ± 1.2 | 17.3 ± 1.2
CCCCC [pentane] + CC[S+](CC)CC.O=S(=O)([N-]S(=O)(=O)C(F)(F)F)C(F)(F)F | 21.6 ± 1.5 | 19.9 ± 1.4 | 18.3 ± 1.3 | 16.8 ± 1.1 | 15.6 ± 1.1 | 14.6 ± 1 | 13.5 ± 0.9 | 12.7 ± 0.9
Cc1ccccc1 [toluene] + CC[S+](CC)CC.O=S(=O)([N-]S(=O)(=O)C(F)(F)F)C(F)(F)F | 1.54 ± 0.1 | 1.56 ± 0.1 | 1.58 ± 0.1 | 1.6 ± 0.11 | 1.62 ± 0.11 | 1.63 ± 0.11 | 1.65 ± 0.11 | 1.66 ± 0.11
C1CCCCCCC1 [cyclooctane] + CC[S+](CC)CC.O=S(=O)([N-]S(=O)(=O)C(F)(F)F)C(F)(F)F | 30.3 ± 2.1 | 27.2 ± 1.9 | 24.5 ± 1.7 | 22.4 ± 1.5 | 20.4 ± 1.4 | 18.7 ± 1.3 | 17.2 ± 1.2 | 16 ± 1.1
C1CCOC1 [tetrahydrofuran] + CC[S+](CC)CC.O=S(=O)([N-]S(=O)(=O)C(F)(F)F)C(F)(F)F | 0.788 ± 0.051 | 0.803 ± 0.052 | 0.82 ± 0.053 | 0.834 ± 0.054 | 0.846 ± 0.054 | 0.859 ± 0.055 | 0.872 ± 0.056 | 0.885 ± 0.056
C#CCCCCC [1-heptyne] + CC[S+](CC)CC.O=S(=O)([N-]S(=O)(=O)C(F)(F)F)C(F)(F)F | 5.34 ± 0.36 | 5.28 ± 0.36 | 5.21 ± 0.36 | 5.14 ± 0.35 | 5.08 ± 0.35 | 5.04 ± 0.34 | 4.98 ± 0.34 | 4.93 ± 0.34
C=CCCC [1-pentene] + CC[S+](CC)CC.O=S(=O)([N-]S(=O)(=O)C(F)(F)F)C(F)(F)F | 8.81 ± 0.6 | 8.41 ± 0.57 | 8.06 ± 0.55 | 7.72 ± 0.53 | 7.4 ± 0.5 | 7.17 ± 0.49 | 6.89 ± 0.47 | 6.69 ± 0.46
C1CCCCC1 [cyclohexane] + CC[S+](CC)CC.O=S(=O)([N-]S(=O)(=O)C(F)(F)F)C(F)(F)F | 16.1 ± 1.1 | 14.7 ± 1 | 13.5 ± 0.9 | 12.4 ± 0.8 | 11.6 ± 0.8 | 10.7 ± 0.7 | 10 ± 0.7 | 9.43 ± 0.64
CCCO [propan-1-ol] + CC[S+](CC)CC.O=S(=O)([N-]S(=O)(=O)C(F)(F)F)C(F)(F)F | – | 2.49 ± 0.17 | 2.24 ± 0.15 | 2.04 ± 0.14 | 1.85 ± 0.12 | 1.7 ± 0.11 | 1.57 ± 0.1 | 1.46 ± 0.1
CCc1ccccc1 [ethylbenzene] + CC[S+](CC)CC.O=S(=O)([N-]S(=O)(=O)C(F)(F)F)C(F)(F)F | 2.42 ± 0.16 | 2.43 ± 0.17 | 2.43 ± 0.17 | 2.44 ± 0.17 | 2.44 ± 0.17 | 2.45 ± 0.17 | 2.45 ± 0.17 | 2.45 ± 0.17
CCCCCCC [heptane] + CC[S+](CC)CC.O=S(=O)([N-]S(=O)(=O)C(F)(F)F)C(F)(F)F | 40.4 ± 2.8 | 36.9 ± 2.5 | 33.5 ± 2.3 | 30.5 ± 2.1 | 28.1 ± 1.9 | 26 ± 1.8 | 24.1 ± 1.6 | 22.5 ± 1.5
c1ccccc1 [benzene] + CC[S+](CC)CC.O=S(=O)([N-]S(=O)(=O)C(F)(F)F)C(F)(F)F | 1.08 ± 0.07 | 1.1 ± 0.07 | 1.11 ± 0.07 | 1.12 ± 0.07 | 1.13 ± 0.07 | 1.13 ± 0.07 | 1.14 ± 0.07 | 1.15 ± 0.07
COC(C)(C)C [2-methoxy-2-methylpropane] + CC[S+](CC)CC.O=S(=O)([N-]S(=O)(=O)C(F)(F)F)C(F)(F)F | 2.92 ± 0.2 | 2.94 ± 0.2 | 2.96 ± 0.2 | 2.98 ± 0.2 | 3 ± 0.2 | 3.02 ± 0.21 | 3.03 ± 0.21 | 3.05 ± 0.21
